Measured values as given in patent US20100048710A1, “Methods and Compositions for Modulating Muscle Fat in Livestock” (priority 2006, published 2010).
“Also recorded” adds a separate entry of the source.

Tests used:
Type in all cases: cell-based
[1] = system: Heterogeneous IM preadipocytes; experiment: GPDH activity in heterogeneous bovine IM preadipocytes, IBU, aspirin or indomethacin for 12 days (Example 5)
Procedure: (§1) Preadipocytes from IM and SC adipose tissue were isolated using a modification of Forest et al., 1987, Exp. Cell Res. 168:218-232. Cells were seeded at a density of 4,160 cells/cm^2 in 35 mm cell culture wells in DMEM with 5.5 mM glucose, supplemented with 100 units/ml penicillin G, 0.1 mg/ml streptomycin sulfate, 0.25 μg/ml amphotericin B, 0.05 mg/ml gentamicin, 33 μM biotin, 17 μM pantothenate, 200 μM ascorbate, 1 mM octanoate, and 10% fetal bovine serum. The cells were grown in a 37° C./5% CO2 incubator. Growth media was replaced every two days until the cells reached confluency (approximately 4 days), at which point the cells were washed twice with phosphate buffered saline (PBS) and differentiation treatments were applied. The differentiation medium consisted of DMEM with 5.5 mM glucose, 100 units/ml penicillin G, 0.1 mg/ml streptomycin sulfate, 0.25 μg/ml amphotericin B, 0.05 mg/ml gentamicin, 33 μM biotin, 17 μM pantothenate, 200 μM ascorbate, 280 nM bovine insulin, and 5 μl/ml bovine serum lipids (Ex-Cyte, Serologicals Corp., Norcross, Ga.). After 48 hours of differentiation media exposure, the cells were washed twice with PBS and differentiation media was replaced every two days for 10 days. Glycerol-3-phosphate dehydrogenase (GPDH) activity was quantified biochemically by measuring GPDH enzyme activity using a modification of a previously published method (Adams et al., J. Clin. Invest. 100:3149-3153). […] Media was changed every two days as previously described until day 12. Adipogenesis was quantitated by measuring GPDH activity. Data were analyzed using the mixed model procedure of SAS (SAS, Cary, N.C.). In all experiments, pooled cells from two wells of a 6 well (35 mm) plate were considered the experimental unit. When main effects were significant (P<0.05), differences between means were evaluated utilizing Tukey's multiple comparison test. […] To satisfy the conditions of normality and homogeneity of variance, GPDH data were loge transformed in Example 2, and GPDH data were square root transformed in Example 3.

[2] = system: Heterogeneous SC preadipocytes; experiment: GPDH activity in heterogeneous bovine SC preadipocytes, IBU, aspirin or indomethacin for 12 days (Example 5); conditions: for GPDH activity versus control: P<0.001
Procedure: as §1

[3] = system: bovine heterogeneous preadipocyte cultures from intramuscular (IM) adipose tissue; experiment: GPDH activity in heterogeneous bovine IM preadipocytes, 12 day exposure with DEX (Example 4, FIG. 3)
Procedure: (§2) Preadipocytes from IM and SC adipose tissue were isolated using a modification of Forest et al., 1987, Exp. Cell Res. 168:218-232. Cells were seeded at a density of 4,160 cells/cm^2 in 35 mm cell culture wells in DMEM with 5.5 mM glucose, supplemented with 100 units/ml penicillin G, 0.1 mg/ml streptomycin sulfate, 0.25 μg/ml amphotericin B, 0.05 mg/ml gentamicin, 33 μM biotin, 17 μM pantothenate, 200 μM ascorbate, 1 mM octanoate, and 10% fetal bovine serum. The cells were grown in a 37° C./5% CO2 incubator. Growth media was replaced every two days until the cells reached confluency (approximately 4 days), at which point the cells were washed twice with phosphate buffered saline (PBS) and differentiation treatments were applied. […]
(§3) Glycerol-3-phosphate dehydrogenase (GPDH) activity was quantified biochemically by measuring GPDH enzyme activity using a modification of a previously published method (Adams et al., J. Clin. Invest. 100:3149-3153).
(§4) Media was changed every two days as previously described until day 12. Adipogenesis was quantitated by measuring GPDH activity.
(§5) Data were analyzed using the mixed model procedure of SAS (SAS, Cary, N.C.). […] When main effects were significant (P<0.05), differences between means were evaluated utilizing Tukey's multiple comparison test. […]

[4] = system: bovine preadipocytes isolated from subcutaneous (SC) adipose tissue; experiment: GPDH activity in bovine SC preadipocytes, 48 h exposure to DEX and IBU (Example 3, FIG. 2); conditions: IBU for 48 hours with 25 nM DEX
Procedure: (§6) The cells were grown in a 37° C./5% CO2 incubator. Growth media was replaced every two days until the cells reached confluency (approximately 4 days), at which point the cells were washed twice with phosphate buffered saline (PBS) and differentiation treatments were applied. The differentiation medium consisted of DMEM with 5.5 mM glucose, 100 units/ml penicillin G, 0.1 mg/ml streptomycin sulfate, 0.25 μg/ml amphotericin B, 0.05 mg/ml gentamicin, 33 μM biotin, 17 μM pantothenate, 200 μM ascorbate, 280 nM bovine insulin, and 5 μl/ml bovine serum lipids (Ex-Cyte, Serologicals Corp., Norcross, Ga.). After 48 hours of differentiation media exposure, the cells were washed twice with PBS and differentiation media was replaced every two days for 10 days. […] After treatment for 48 hours, media was changed as previously described until day 10. Cells from two beef steers were used, and duplicates of each steer treatment were done. Adipogenesis was quantitated by measuring GPDH activity. Data were analyzed using the mixed model procedure of SAS (SAS, Cary, N.C.). In all experiments, pooled cells from two wells of a 6 well (35 mm) plate were considered the experimental unit. When main effects were significant (P<0.05), differences between means were evaluated utilizing Tukey's multiple comparison test.

[5] = system: bovine preadipocytes isolated from intramuscular (IM) adipose tissue; experiment: GPDH activity in bovine IM preadipocytes, 48 h exposure to DEX and IBU (Example 3, FIG. 2); conditions: 48 hours with 25 nM DEX
Procedure: as §6

[6] = system: bovine heterogeneous preadipocyte cultures from subcutaneous (SC) adipose tissue; experiment: GPDH activity in heterogeneous bovine SC preadipocytes, 12 day exposure with DEX (Example 4, FIG. 3)
Procedure: as §2, §3, §4, §5

`CC(=O)Oc1ccccc1C(=O)O` [Aspirin, aspirin] was tested, and the “GPDH activity, aspirin alone” value ([1]; IM preadipocytes, 500 μM, 12 days, alone) was “did not affect GPDH activity; also recorded: did not enhance GPDH activity”, the “GPDH activity, aspirin in combination with DEX” value ([1]; IM preadipocytes, 500 μM, 12 days, with DEX) was “did not enhance GPDH activity” and the “GPDH activity, aspirin alone” value ([2]; SC preadipocytes, 500 μM, 12 days, alone) was “did not affect GPDH activity; also recorded: did not enhance GPDH activity”. For the same compound, the “GPDH activity, aspirin in combination with DEX” value ([2]; SC preadipocytes, 500 μM, 12 days, with DEX) was “did not enhance GPDH activity”.
With `COc1ccc2c(c1)c(CC(=O)O)c(C)n2C(=O)c1ccc(Cl)cc1` [Indomethacin, indomethacin] the toxicity to cells ([1]; IM preadipocytes, 500 μM, up to 12 days) was “toxic to cells” and the toxicity to cells ([2]; SC preadipocytes, 500 μM, up to 12 days) was “toxic to cells”.
`CC(C)Cc1ccc(C(C)C(=O)O)cc1` (centres unmarked) [IBU, 2-(p-isobutylphenyl)propionic acid] was tested, and the “GPDH activity versus control” value ([1]; IM cells, 1000 μM IBU, 12 days, absence of DEX, P=0.003) was “higher than control”, the “maximum induction of GPDH activity” value ([1]; IM cells, IBU, 12 days, absence of DEX) was 12 fold over control and the “GPDH activity versus control” value ([1]; IM preadipocytes, 500 μM IBU, 12 days, absence of DEX) was “enhanced GPDH”. For the same compound, the “effect of IBU on DEX induction of differentiation (GPDH)” value (“effect … of differentiation (GPDH)” for short) ([3]; 100 μM IBU) was “enhanced DEX induction of differentiation”, the “effect … of differentiation (GPDH)” value ([3]; 500 μM IBU) was “enhanced DEX induction of differentiation” and the “effect of IBU on DEX stimulation of GPDH activity” value (shortened to “effect of IBU … of GPDH activity”) [4] was “did not enhance DEX stimulation of GPDH activity”. The “effect of IBU … of GPDH activity” value ([5]; 1000 μM IBU) was “enhanced DEX stimulation of GPDH activity”, the “effect of IBU … of GPDH activity” value ([5]; 2000 μM IBU) was “enhanced DEX stimulation of GPDH activity” and the “maximum induction of GPDH activity” value ([2]; SC cells, IBU, 12 days, absence of DEX) was 1.7 fold over control. The “GPDH activity versus control” value ([2]; SC preadipocytes, 10 μM IBU, 12 days, absence of DEX) was “enhanced GPDH activity”, the “GPDH activity versus control” value ([2]; SC preadipocytes, 100 μM IBU, 12 days, absence of DEX) was “enhanced GPDH activity” and the “GPDH activity versus control” value ([2]; SC preadipocytes, 500 μM IBU, 12 days, absence of DEX) was “enhanced GPDH activity”. For the same compound, the “effect … of differentiation (GPDH)” value ([6]; SC cells, 100 μM IBU) was “enhanced DEX induction of differentiation” and the “effect of IBU on DEX stimulation of GPDH” value ([6]; SC preadipocytes, 1000 μM IBU) was “reduced DEX stimulation of GPDH”.
